According to patent US7803822B2, “Triazole derivative and use thereof” (Takeda Pharmaceutical Company Limited, priority 2005, dated 2010):

Target: T1, human PAR-1 (Homo sapiens, UniProt P25116)
T1 construct: expressed in transfected cells; host or cells: CHO-K1 (transformant flag/trn/CHO-K1)
T1 sequence (P25116 22-425): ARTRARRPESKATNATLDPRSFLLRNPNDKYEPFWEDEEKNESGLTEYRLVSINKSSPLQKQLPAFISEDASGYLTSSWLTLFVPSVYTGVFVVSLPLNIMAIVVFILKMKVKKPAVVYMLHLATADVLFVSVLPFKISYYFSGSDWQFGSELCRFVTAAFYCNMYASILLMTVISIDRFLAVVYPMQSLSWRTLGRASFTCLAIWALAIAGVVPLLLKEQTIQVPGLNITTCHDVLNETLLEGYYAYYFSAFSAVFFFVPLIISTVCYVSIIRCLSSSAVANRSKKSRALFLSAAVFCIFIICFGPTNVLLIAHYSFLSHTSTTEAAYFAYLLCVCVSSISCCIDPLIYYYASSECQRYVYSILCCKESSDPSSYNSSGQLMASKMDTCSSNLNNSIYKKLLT
Experiment: Evaluation of PAR-1 antagonistic action by intracellular calcium concentration variation assay (FLIPR)
Format: cell-based
Conditions: human PAR-1-expressing CHO cells, agonist peptide SFLLRN-NH2 final concentration 0.3 nM, Fluo-3AM
Method: Evaluation of PAR-1 Antagonistic Action of Compound by Intracellular Calcium Concentration Variation Assay
Human PAR-1-expressing cells was plated at 3×10^4 cells/well on a 96 well clear bottom plate (Corning 3904 type) and cultured for 16-24 hr. The medium was removed from the wells of the plate, measurement buffer (50 μL, 115 mM NaCl, 5.4 mM KCl, 1.8 mM CaCl2, 0.8 mM MgCl2, 13.8 mM D-glucose, 0.1% BSA, 20 mM HEPES, pH 7.4) containing 2.5 μg/mL of Fluo-3AM (manufactured by Dojindo Laboratories), 0.08% Pluronic F-127 and 2.5 mM Probenecid was added to the cells and the mixture was reacted at 37° C. for 1 hr. The cells were washed twice with the measurement buffer. After addition of the measurement buffer (100 μL), a measurement buffer (50 μL) containing a test compound was added, and the mixture was stood still for 10 min. The plate was moved to a fluorometry image-plate reader (FLIPR-1, manufactured by Molecular Devices). […] The intracellular calcium concentration was measured by FLIPR.

| IC50 [nM] | Structure (SMILES) |
| --- | --- |
| 520 | CCCc1c(C(=O)NC2CC2)nnn1-c1ccc(NC(=O)C(C)C)cc1 [Example 3, N-cyclopropyl-1-[4-(isobutyrylamino)phenyl]-5-propyl-1H-1,2,3-triazole-4-carboxamide] |
| 550 | CCCc1c(C(=O)NC2CC2)nnn1-c1ccc(NC(=O)C2CC2)cc1 [Example 4, N-cyclopropyl-1-{4-[(cyclopropylcarbonyl)amino]phenyl}-5-propyl-1H-1,2,3-triazole-4-carboxamide] |
| 250 | CCCc1c(C(=O)NC2CC2)nnn1-c1ccc(NC(=O)C(F)(F)F)cc1 [Example 16, N-cyclopropyl-5-propyl-1-{4-[(trifluoroacetyl)amino]phenyl}-1H-1,2,3-triazole-4-carboxamide] |
| 750 | CCCc1c(C(=O)NC2CC2)nnn1-c1ccc(NC(=O)COC)cc1 [Example 19, N-cyclopropyl-1-{4-[(methoxyacetyl)amino]phenyl}-5-propyl-1H-1,2,3-triazole-4-carboxamide] |
| 94 | CCCc1c(C(=O)NC2CC2)nnn1-c1ccc(NC(=O)CC(F)(F)F)cc1 [Example 25, N-cyclopropyl-5-propyl-1-{4-[(3,3,3-trifluoropropanoyl)amino]phenyl}-1H-1,2,3-triazole-4-carboxamide] |
| 370 | CCCc1c(C(=O)NC2CC2)nnn1-c1ccc(NC(=O)NCC)cc1 [Example 27, N-cyclopropyl-1-(4-{[(ethylamino)carbonyl]amino}phenyl)-5-propyl-1H-1,2,3-triazole-4-carboxamide] |
| 3700 | CCCc1c(C(=O)NC2CC2)nnn1-c1ccc(NC(=O)NC)cc1 [Example 31, N-cyclopropyl-1-(4-{[(methylamino)carbonyl]amino}phenyl)-5-propyl-1H-1,2,3-triazole-4-carboxamide] |
| 630 | C=CCCc1c(C(=O)NC2CC2)nnn1-c1ccc(NC(=O)NCC)cc1 [Example 41, 5-(3-buten-1-yl)-N-cyclopropyl-1-(4-{[(ethylamino)carbonyl]amino}phenyl)-1H-1,2,3-triazole-4-carboxamide] |
| 1500 | CCCc1c(C(=O)NC2CC2)nnn1-c1ccc(C(=O)NCC)cc1 [Example 43, N-cyclopropyl-1-{4-[(ethylamino)carbonyl]phenyl}-5-propyl-1H-1,2,3-triazole-4-carboxamide] |
| 950 | CCCc1c(C(=O)NC2CC2)nnn1-c1ccc(C(=O)NCC(F)(F)F)cc1 [Example 46, N-cyclopropyl-5-propyl-1-(4-{[(2,2,2-trifluoroethyl)amino]carbonyl}phenyl)-1H-1,2,3-triazole-4-carboxamide] |
| 3500 | CCCc1c(C(=O)NC2CC2)nnn1-c1ccc(C(=O)NC(C)C)cc1 [Example 49, N-cyclopropyl-1-{4-[(isopropylamino)carbonyl]phenyl}-5-propyl-1H-1,2,3-triazole-4-carboxamide] |
| 1400 | CCCc1c(C(=O)NC2CC2)nnn1-c1ccc(C(=O)NCC(C)C)cc1 [Example 52, N-cyclopropyl-1-{4-[(isobutylamino)carbonyl]phenyl}-5-propyl-1H-1,2,3-triazole-4-carboxamide] |
| 3400 | CCCc1c(C(=O)NC2CC2)nnn1-c1ccc(C(=O)NC2CC2)cc1 [Example 53, N-cyclopropyl-1-{4-[(cyclopropylamino)carbonyl]phenyl}-5-propyl-1H-1,2,3-triazole-4-carboxamide] |
| 1600 | CCCc1c(C(=O)NC2CC2)nnn1-c1ccc(C(=O)NC2CCCC2)cc1 [Example 54, 1-{4-[(cyclopentylamino)carbonyl]phenyl}-N-cyclopropyl-5-propyl-1H-1,2,3-triazole-4-carboxamide] |
| 3600 | CCCNC(=O)c1ccc(-n2nnc(C(=O)NC3CC3)c2CCC)cc1 [Example 55, N-cyclopropyl-5-propyl-1-{4-[(propylamino)carbonyl]phenyl}-1H-1,2,3-triazole-4-carboxamide] |
| 3400 | CCCc1c(C(=O)NC2CC2)nnn1-c1ccc(C(=O)NCC)cc1Cl [Example 72, 1-{2-chloro-4-[(ethylamino)carbonyl]phenyl}-N-cyclopropyl-5-propyl-1H-1,2,3-triazole-4-carboxamide] |
| 1900 | CCCc1c(C(=O)NCC2CCCO2)nnn1-c1ccc(C(=O)NCC)cc1 (stereo not drawn) [Example 82, 1-{4-[(ethylamino)carbonyl]phenyl}-5-propyl-N-(tetrahydrofuran-2-ylmethyl)-1H-1,2,3-triazole-4-carboxamide] |

| IC50 [nM] | Structure (SMILES) |
| --- | --- |
| 3600 | CCCc1c(C(=O)NCc2cnc(C)cn2)nnn1-c1ccc(C(=O)NCC)cc1 [Example 83, 1-{4-[(ethylamino)carbonyl]phenyl}-N-[(5-methylpyrazin-2-yl)methyl]-5-propyl-1H-1,2,3-triazole-4-carboxamide] |
| 1300 | CCCc1c(C(=O)NCc2ccccn2)nnn1-c1ccc(C(=O)NCC)cc1 [Example 84, 1-{4-[(ethylamino)carbonyl]phenyl}-5-propyl-N-(pyridin-2-ylmethyl)-1H-1,2,3-triazole-4-carboxamide] |
| 1900 | CCCc1c(C(=O)N2CCc3c([nH]c4ccccc34)C2)nnn1-c1ccc(C(=O)NCC)cc1 [Example 85, N-ethyl-4-[5-propyl-4-(1,3,4,9-tetrahydro-2H-β-carbolin-2-ylcarbonyl)-1H-1,2,3-triazol-1-yl]benzamide] |
| 620 | CCCc1c(C(=O)NCc2ccc3c(c2)OCO3)nnn1-c1ccc(C(=O)NCC)cc1 [Example 86, N-(1,3-benzodioxol-5-ylmethyl)-1-{4-[(ethylamino)carbonyl]phenyl}-5-propyl-1H-1,2,3-triazole-4-carboxamide] |
| 280 | CCCc1c(C(=O)NCCc2c[nH]c3ccc(OC)cc23)nnn1-c1ccc(C(=O)NCC)cc1 [Example 87, 1-{4-[(ethylamino)carbonyl]phenyl}-N-[2-(5-methoxy-1H-indol-3-yl)ethyl]-5-propyl-1H-1,2,3-triazole-4-carboxamide] |
| 720 | CCCc1c(C(=O)NCc2cccc(F)c2)nnn1-c1ccc(C(=O)NCC)cc1 [Example 88, 1-{4-[(ethylamino)carbonyl]phenyl}-N-(3-fluorobenzyl)-5-propyl-1H-1,2,3-triazole-4-carboxamide] |
| 670 | CCCc1c(C(=O)NC2CCCc3ccccc32)nnn1-c1ccc(C(=O)NCC)cc1 (stereo not drawn) [Example 89, 1-{4-[(ethylamino)carbonyl]phenyl}-5-propyl-N-(1,2,3,4-tetrahydronaphthalen-1-yl)-1H-1,2,3-triazole-4-carboxamide] |
| 2400 | CCCCc1c(C(=O)NC2CC2)nnn1-c1ccc(C(=O)NCC)cc1 [Example 90, 5-butyl-N-cyclopropyl-1-{4-[(ethylamino)carbonyl]phenyl}-1H-1,2,3-triazole-4-carboxamide] |
| 2200 | CCNC(=O)c1ccc(-n2nnc(C(=O)NC3CC3)c2CCCOCc2ccccc2)cc1 [Example 91, 5-[3-(benzyloxy)propyl]-N-cyclopropyl-1-{4-[(ethylamino)carbonyl]phenyl}-1H-1,2,3-triazole-4-carboxamide] |
| 1200 | CCNC(=O)c1ccc(-n2nnc(C(=O)NC3CC3)c2CC(C)C)cc1 [Example 93, N-cyclopropyl-1-{4-[(ethylamino)carbonyl]phenyl}-5-isobutyl-1H-1,2,3-triazole-4-carboxamide] |
| 1700 | CCNC(=O)c1ccc(-n2nnc(C(=O)NC3CC3)c2COCc2ccccc2)cc1 [Example 94, 5-[(benzyloxy)methyl]-N-cyclopropyl-1-{4-[(ethylamino)carbonyl]phenyl}-1H-1,2,3-triazole-4-carboxamide] |
| 1200 | CCNC(=O)c1ccc(-n2nnc(C(=O)NC3CC3)c2CC2CC2)cc1 [Example 96, N-cyclopropyl-5-(cyclopropylmethyl)-1-{4-[(ethylamino)carbonyl]phenyl}-1H-1,2,3-triazole-4-carboxamide] |
| 1600 | CCNC(=O)c1ccc(-n2nnc(C(=O)NC3CC3)c2CCC(C)C)cc1 [Example 97, N-cyclopropyl-1-{4-[(ethylamino)carbonyl]phenyl}-5-(3-methylbutyl)-1H-1,2,3-triazole-4-carboxamide] |
| 500 | CCNC(=O)c1ccc(-n2nnc(C(=O)NC3CC3)c2CCc2ccccc2)cc1 [Example 98, N-cyclopropyl-1-{4-[(ethylamino)carbonyl]phenyl}-5-(2-phenylethyl)-1H-1,2,3-triazole-4-carboxamide] |
| 1300 | CCNC(=O)c1ccc(-n2nnc(C(=O)NC3CC3)c2Cc2ccccc2)cc1 [Example 99, 5-benzyl-N-cyclopropyl-1-{4-[(ethylamino)carbonyl]phenyl}-1H-1,2,3-triazole-4-carboxamide] |
| 700 | CCNC(=O)c1ccc(-n2nnc(C(=O)NC3CC3)c2CCCc2ccccc2)cc1 [Example 100, N-cyclopropyl-1-{4-[(ethylamino)carbonyl]phenyl}-5-(3-phenylpropyl)-1H-1,2,3-triazole-4-carboxamide] |
